Results: patent US10683289B2, “Apoptosis signal-regulating kinase 1 inhibitors and methods of use thereof” (ENANTA PHARMACEUTICALS, INC., priority 2018, dated 2020)
pIC50: −log10 of the molar value.

Biological target: ASK1 (Homo sapiens (Human), UniProt Q99683)
Assay: HTRF KinEASE Assay, inhibition of ASK1
Type: biochemical
Conditions: 5 nM ASK1 kinase, 1 uM STK3 peptide substrate, 100 uM ATP, TR-FRET; read-out: IC50 range
Procedure: HTRF® KinEASE™ Assay ASK1 was purchased from Thermofisher (Catalogue # PV4011), ATP was purchased from Sigma (Catalogue # A7699), HTRF® KinEASE™ Assay System was obtained from Cisbio (Bedford, Mass.). ½ Area plate was purchased from Perkin Elmer (Catalogue # #6005560). HTRF® KinEASE™-STK is a generic method for measuring serine/threonine kinase activities using a time-resolved fluorescence resonance energy transfer (TR-FRET) immunoassay. […] The test compound, 1 uM STK3 peptide substrate, and 5 nM of ASK1 kinase are incubated with kinase reaction buffer containing 50 mM HEPES pH 7.5, 0.01% BRIJ-35, 10 mM MgCl2, and 1 mM EGTA for 30 minutes. 100 uM ATP is added to start kinase reaction and incubated for 3 hours. The STK3-antibody labeled with Eu^3+-Cryptate and 125 nM streptavidin-XL665 are mixed in a single addition with stop reagents provided by the Cisbio kit used to stop the kinase reaction. Fluorescence is detected using an Envision Multilabeled 2014 reader from PerkinElmer. The Fluorescence is measured at 615 nm (Cryptate) and 665 nm (XL665) and a ratio of 665 nm/615 nm is calculated for each well. The resulting TR-FRET is proportional to the phosphorylation level. […] IC50 was determined by XLfit 5.3. By using above method, the inhibition of ASK1 was evaluated for the compounds of Formula (I).

ASK1, sequence (Q99683 whole entry): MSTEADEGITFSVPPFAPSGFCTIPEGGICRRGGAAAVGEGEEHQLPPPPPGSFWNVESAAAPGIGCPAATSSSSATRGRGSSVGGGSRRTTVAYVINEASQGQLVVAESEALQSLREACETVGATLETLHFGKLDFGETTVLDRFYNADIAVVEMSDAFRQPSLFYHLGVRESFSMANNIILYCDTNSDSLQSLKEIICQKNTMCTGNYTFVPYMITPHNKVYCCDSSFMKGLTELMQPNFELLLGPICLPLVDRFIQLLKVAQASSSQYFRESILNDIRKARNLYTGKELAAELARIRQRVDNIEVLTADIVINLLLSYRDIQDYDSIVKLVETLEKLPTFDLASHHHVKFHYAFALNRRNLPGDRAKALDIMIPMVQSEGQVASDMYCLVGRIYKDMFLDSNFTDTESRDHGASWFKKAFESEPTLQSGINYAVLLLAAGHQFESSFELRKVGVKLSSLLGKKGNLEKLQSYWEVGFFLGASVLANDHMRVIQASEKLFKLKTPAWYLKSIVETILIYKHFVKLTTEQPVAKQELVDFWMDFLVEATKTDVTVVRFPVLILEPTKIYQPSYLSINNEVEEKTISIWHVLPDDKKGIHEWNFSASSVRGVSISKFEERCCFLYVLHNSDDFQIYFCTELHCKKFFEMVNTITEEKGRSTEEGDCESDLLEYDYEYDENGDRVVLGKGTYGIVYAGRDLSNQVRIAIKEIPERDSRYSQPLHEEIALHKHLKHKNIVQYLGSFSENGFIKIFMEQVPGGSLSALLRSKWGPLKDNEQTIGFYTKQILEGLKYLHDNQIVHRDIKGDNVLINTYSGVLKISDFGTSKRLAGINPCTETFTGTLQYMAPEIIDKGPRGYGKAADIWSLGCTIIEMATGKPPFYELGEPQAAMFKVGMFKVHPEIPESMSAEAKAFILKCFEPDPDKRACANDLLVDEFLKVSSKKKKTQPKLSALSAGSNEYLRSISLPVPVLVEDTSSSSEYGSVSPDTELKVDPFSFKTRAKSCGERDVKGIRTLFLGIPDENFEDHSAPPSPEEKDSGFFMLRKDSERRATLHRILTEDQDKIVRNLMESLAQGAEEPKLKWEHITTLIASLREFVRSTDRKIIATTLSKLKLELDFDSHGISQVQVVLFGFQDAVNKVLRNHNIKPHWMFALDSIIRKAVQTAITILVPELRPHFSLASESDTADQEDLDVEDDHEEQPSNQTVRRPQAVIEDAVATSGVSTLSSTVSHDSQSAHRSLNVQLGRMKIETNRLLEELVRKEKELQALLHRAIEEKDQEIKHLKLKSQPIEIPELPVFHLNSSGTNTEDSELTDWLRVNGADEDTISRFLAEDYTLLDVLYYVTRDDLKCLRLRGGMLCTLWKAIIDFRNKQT

Row | pIC50 | SMILES
1 | 6.00 to 7.00 | CC(C)n1nnnc1-c1cccc(NC(=O)c2cc3c(cc2F)CN(C(C)(C)C)S3(=O)=O)n1 [Example 1, 2-(tert-butyl)-5-fluoro-N-(6-(1-isopropyl-1H-tetrazol-5-yl)pyridin-2-yl)-2,3-dihydrobenzo[d]isothiazole-6-carboxamide 1,1-dioxide]
2 | 7.00 to 8.00 | CC(C)n1nnnc1-c1cccc(NC(=O)c2cc3c(cc2F)CCN(C(C)(C)C)S3(=O)=O)n1 [Example 4, 2-(tert-butyl)-6-fluoro-N-(6-(1-isopropyl-1H-tetrazol-5-yl)pyridin-2-yl)-3,4-dihydro-2H-benzo[e][1,2]thiazine-7-carboxamide 1,1-dioxide]
3 | 7.00 to 8.00 | CC(C)N1Cc2cc(F)c(C(=O)Nc3cccc(-c4nncn4C(C)C)n3)cc2S1(=O)=O [Example 7, 5-fluoro-2-isopropyl-N-(6-(4-isopropyl-4H-1,2,4-triazol-3-yl)pyridin-2-yl)-2,3-dihydrobenzo[d]isothiazole-6-carboxamide 1,1-dioxide]
4 | > 8.82 | COc1cc2c(cc1C(=O)Nc1cccc(-c3nncn3C(C)C)n1)S(=O)(=O)N(C(C)C)C2 [Example 8, 2-isopropyl-N-(6-(4-isopropyl-4H-1,2,4-triazol-3-yl)pyridin-2-yl)-5-methoxy-2,3-dihydrobenzo[d]isothiazole-6-carboxamide 1,1-dioxide]
5 | 7.00 to 8.00 | CC(C)Oc1cc2c(cc1C(=O)Nc1cccc(-c3nnnn3[C@H](C)CO)n1)S(=O)(=O)N(C(C)C)C2 [Example 13, (R)—N-(6-(1-(1-hydroxypropan-2-yl)-1H-tetrazol-5-yl)pyridin-2-yl)-5-isopropoxy-2-isopropyl-2,3-dihydrobenzo[d]isothiazole-6-carboxamide 1,1-dioxide]
6 | 7.00 to 8.00 | CC(C)n1cnnc1-c1cccc(NC(=O)c2cc3c(cc2F)CN(C)S3(=O)=O)n1 [Example 15, 5-fluoro-N-(6-(4-isopropyl-4H-1,2,4-triazol-3-yl)pyridin-2-yl)-2-methyl-2,3-dihydrobenzo[d]isothiazole-6-carboxamide 1,1-dioxide]
7 | > 8.82 | COc1cc2c(cc1C(=O)Nc1cccc(-c3nncn3C(C)C)n1)S(=O)(=O)N(C)C2 [Example 16, N-(6-(4-isopropyl-4H-1,2,4-triazol-3-yl)pyridin-2-yl)-5-methoxy-2-methyl-2,3-dihydrobenzo[d]isothiazole-6-carboxamide 1,1-dioxide]
8 | > 8.82 | COc1cc2c(cc1C(=O)Nc1cccc(-c3nnnn3[C@H](C)CO)n1)S(=O)(=O)N(C)C2 [Example 18, (R)—N-(6-(1-(1-hydroxypropan-2-yl)-1H-tetrazol-5-yl)pyridin-2-yl)-5-methoxy-2-methyl-2,3-dihydrobenzo[d]isothiazole-6-carboxamide 1,1-dioxide]
9 | 7.00 to 8.00 | COCCN1Cc2cc(OC)c(C(=O)Nc3cccc(-c4nncn4C(C)C)n3)cc2S1(=O)=O [Example 20, N-(6-(4-isopropyl-4H-1,2,4-triazol-3-yl)pyridin-2-yl)-5-methoxy-2-(2-methoxyethyl)-2,3-dihydrobenzo[d]isothiazole-6-carboxamide 1,1-dioxide]
10 | > 8.82 | COCCN1Cc2cc(F)c(C(=O)Nc3cccc(-c4nnnn4[C@H](C)CO)n3)cc2S1(=O)=O [Example 21, (R)-5-fluoro-N-(6-(1-(1-hydroxypropan-2-yl)-1H-tetrazol-5-yl)pyridin-2-yl)-2-(2-methoxyethyl)-2,3-dihydrobenzo[d]isothiazole-6-carboxamide 1,1-dioxide]
11 | > 8.82 | COCCN1Cc2cc(OC)c(C(=O)Nc3cccc(-c4nnnn4[C@H](C)CO)n3)cc2S1(=O)=O [Example 22, (R)—N-(6-(1-(1-hydroxypropan-2-yl)-1H-tetrazol-5-yl)pyridin-2-yl)-5-methoxy-2-(2-methoxyethyl)-2,3-dihydrobenzo[d]isothiazole-6-carboxamide 1,1-dioxide]

Continued, molecule first:

Row | SMILES | pIC50
12 | C[C@H](CO)n1nnnc1-c1cccc(NC(=O)c2cc3c(cc2F)CN(C(C)(C)C)S3(=O)=O)n1 [Example 2, (R)-2-(tert-butyl)-5-fluoro-N-(6-(1-(1-hydroxypropan-2-yl)-1H-tetrazol-5-yl)pyridin-2-yl)-2,3-dihydrobenzo[d]isothiazole-6-carboxamide 1,1-dioxide] | 7.00 to 8.00
13 | COc1cc2c(cc1C(=O)Nc1cccc(-c3nnnn3C(C)C)n1)S(=O)(=O)N(C(C)(C)C)C2 [Example 6, 2-(tert-butyl)-N-(6-(1-isopropyl-1H-tetrazol-5-yl)pyridin-2-yl)-5-methoxy-2,3-dihydrobenzo[d]isothiazole-6-carboxamide 1,1-dioxide] | < 6.00
14 | CC(C)N1Cc2cc(F)c(C(=O)Nc3cccc(-c4nnnn4[C@H](C)CO)n3)cc2S1(=O)=O [Example 9, (R)-5-fluoro-N-(6-(1-(1-hydroxypropan-2-yl)-1H-tetrazol-5-yl)pyridin-2-yl)-2-isopropyl-2,3-dihydrobenzo[d]isothiazole-6-carboxamide 1,1-dioxide] | 7.00 to 8.00
15 | COc1cc2c(cc1C(=O)Nc1cccc(-c3nnnn3[C@H](C)CO)n1)S(=O)(=O)N(C(C)C)C2 [Example 10, (R)—N-(6-(1-(1-hydroxypropan-2-yl)-1H-tetrazol-5-yl)pyridin-2-yl)-2-isopropyl-5-methoxy-2,3-dihydrobenzo[d]isothiazole-6-carboxamide 1,1-dioxide] | > 8.82
16 | CC(C)N1Cc2cc(OCC(F)(F)F)c(C(=O)Nc3cccc(-c4nnnn4[C@H](C)CO)n3)cc2S1(=O)=O [Example 12, (R)—N-(6-(1-(1-hydroxypropan-2-yl)-1H-tetrazol-5-yl)pyridin-2-yl)-2-isopropyl-5-(2,2,2-trifluoroethoxy)-2,3-dihydrobenzo[d]isothiazole-6-carboxamide 1,1-dioxide] | 6.00 to 7.00
17 | CC(C)N1Cc2cc(N(C)C)c(C(=O)Nc3cccc(-c4nnnn4[C@H](C)CO)n3)cc2S1(=O)=O [Example 14, (R)-5-(dimethylamino)-N-(6-(1-(1-hydroxypropan-2-yl)-1H-tetrazol-5-yl)pyridin-2-yl)-2-isopropyl-2,3-dihydrobenzo[d]isothiazole-6-carboxamide 1,1-dioxide] | 7.00 to 8.00
18 | C[C@H](CO)n1nnnc1-c1cccc(NC(=O)c2cc3c(cc2F)CN(C)S3(=O)=O)n1 [Example 17, (R)-5-fluoro-N-(6-(1-(1-hydroxypropan-2-yl)-1H-tetrazol-5-yl)pyridin-2-yl)-2-methyl-2,3-dihydrobenzo[d]isothiazole-6-carboxamide 1,1-dioxide] | 7.00 to 8.00
19 | COCCN1Cc2cc(F)c(C(=O)Nc3cccc(-c4nncn4C(C)C)n3)cc2S1(=O)=O [Example 19, 5-fluoro-N-(6-(4-isopropyl-4H-1,2,4-triazol-3-yl)pyridin-2-yl)-2-(2-methoxyethyl)-2,3-dihydrobenzo[d]isothiazole-6-carboxamide 1,1-dioxide] | 7.00 to 8.00
